Reference: US5068064A, “N-substituted lauramides, their preparation and compositions in which they are present” (Sanofi, priority 1989, dated 1991)
In brackets after ≈: the same amount, converted by molar mass. Structures can show the parent of a compound that is named as a salt.

How the values were obtained:
[1] = test system: Pseudomonas aeruginosa CIP A22; test: Minimum bactericidal concentration, first method (30 min contact), P. aeruginosa; type: cell-based; details: CIPA22, 0.5 h, contact time 30 minutes
Text: (§1) In the two methods, a bacterial inoculum is brought into contact with different dilutions of the product for a determined period of time.
(§2) When the contact period has ended, an aliquot of the mixture of bacterial suspension and product is taken and brought into contact with an agent for neutralizing the bacterial activity of the mixture, either in a solid medium or in a liquid medium. The bactericidal activity of the product, expressed either as a concentration or as a percentage of active principle, corresponds to an absence of bacterial growth.
(§3) The first method makes it possible to define a minimum bactericidal concentration (MBC) or minimum fungicidal concentration (MFC), expressed in μg/ml. The contact time between product and bacterial suspension is 30 minutes. The neutralizer is included in agar.
(§4) The CIP bacterial strains chosen for the study, which are available from the Institut Pasteur, are:
4. Psuedomonas aeruginosa
(§5) The strains are maintained on Tryptic Soy Agar® (TSA) marketed by Difco.
(§6) After 24 hours of culture at 37° C., the microbial growth is harvested with the aid of glass beads and 10 ml of diluent containing 1 g of tryptone and 8.5 g of sodium chloride in 1000 ml of distilled water. The suspension formed is shaken and the percentage transmission of light at 620 nm is measured in a spectrophotometer:
(§7) The bacterial inoculum corresponds to a 1:20 dilution of this bacterial suspension.
(§8) Plates containing cupules receive different dilutions of the test product. These dilutions of the test product are brought into contact with the different bacterial suspensions using a multiple site inoculator. After a contact time of 30 minutes, aliquots are transferred with this inoculator to the surface of an agar medium (TSA) placed in Petri dishes containing an activity neutralizer, namely 20 g of lubrol W, 2.5 g of Tween 80, 2.5 g of sodium thiosulfate and 1% of egg yolk in 1000 ml of TSA (Difco). A control for the efficacy of the neutralizer is prepared for each test product by depositing an aliquot of the dilution of the test product on the surface of the culture medium. After drying, the corresponding inoculum is deposited in the same place. An inoculum control is prepared on agar medium with and without neutralizer. The results are read off after 48 hours of incubation at 37° C.
(§9) They indicate the minimum bactericidal concentrations (MBC) for strains 1, 2, 3 and 4 and the minimum fungicidal concentrations (MFC) for strain 5.

[2] = test system: Enterococcus faecium CIP 5855; test: Percentage of bactericidal active principle, second method (5 min contact), E. faecium; type: cell-based; details: destruction of 99.99%
Text: as §1, §2
(§10) The second method makes it possible to define a percentage of bactericidal or fungicidal active principle by means of a simplified and automated adaptation of Afnor standards NF T 72-150 and NF T 72-170. In this method, the bactericidal activity of the product is determined with and without interfering substances. It is based on assessing the destruction of 99.99% of the initial bacteria by the product in 5 minutes. The interfering substances are of the protein type and are chosen for the actual conditions of application of this type of product. The contact time between product and bacterial suspension is 5 minutes, the neutralization step is 10 minutes and subculture is effected in a liquid medium.
(§11) The chosen bacterial strains are:
as §5
(§12) The strains are harvested in a manner identical to the first method; these suspensions contain between 1.10^8 and 3.10^8 cells per milliliter. Appropriate dilutions make it possible to have a suspension containing 2 to 6.10^3 cells per milliliter.
(§13) The experiment is performed in microtiter plates; it comprises two steps. The first step, called the preliminary test, checks that the product is indeed neutralized. In the test proper, the different dilutions of the product are brought into contact with 2 to 6.10^3 cells per milliliter of the bacterial suspension in the second row of the microtiter plate. After a contact time of 5 minutes, an aliquot is transferred to the third row containing the neutralizer adapted to the product and to the strain. After a contact time of 10 minutes, aliquots are transferred to the last 5 rows containing Tryptic Soy Broth® (TSB) from Difco.
(§14) The interfering substances tested are a mixture of albumin and yeast extract. In the first row of the microplate, these proteins are brought into contact for 5 minutes with the different dilutions of the product. After this step, the same principle as above is applied: 5 minutes of contact with the germ, 10 minutes of contact with the neutralizer, transfer to TSB.

[3] = test system: Candida albicans CIP 1180; test: Percentage of fungicidal active principle, second method (5 min contact), C. albicans; type: cell-based
Text: as §1, §2, §10, §13, §14
The antifungal activity of the products according to the invention was also determined with and without interfering substances using the method described above. The same strain was used as for the first technique, namely Candida albicans CIP 1180. It is harvested in an identical manner to that described in the first method.

[4] = test system: Enterococcus faecium CIP 5855; test: Minimum bactericidal concentration, first method (30 min contact), E. faecium; type: cell-based; details: CIP5855, 0.5 h, contact time 30 minutes
Text: as §1, §2, §3, §4, §5, §6, §7, §8, §9

[5] = test system: Escherichia coli CIP 54127; test: Percentage of bactericidal active principle, second method (5 min contact), E. coli; type: cell-based; details: destruction of 99.99%
Text: as §1, §2, §10, §11
(§15) 3. Escherichia coli CIP 54127
as §5, §12, §13, §14

[6] = test system: Candida albicans CIP 1180; test: Minimum fungicidal concentration, first method (30 min contact), C. albicans; type: cell-based; details: CIP1180, 0.5 h, contact time 30 minutes
Text: as §1, §2, §3, §8
The antifungal activity of the products according to the invention was also determined using the method described above. A representative strain of yeast was selected for the study: Candida albicans CIP 1180 (strain 5).
This is maintained on Sabouraud's Dextrose Agar marketed by Difco. The technique is identical to that described for studying the antibacterial activity. After 48 hours of culture at 37° C., the microbial growth is harvested with the aid of glass beads and 5 ml of diluent containing 1 g of tryptone and 8.5 g of sodium chloride in 1000 ml of distilled water; a further 5 ml of the diluent are then added. This suspension gives a percentage transmission of light at 620 nm of 2 to 3% in a spectrophotometer.
The inoculum corresponds to a 1:10 dilution of this microbial suspension. A 1:100 dilution of this suspension, observed between slide and cover glass through a No. 40 microscope objective, must show 10 cells per field, which corresponds to 1,000,000 yeasts per ml.
as §9

[7] = test system: Staphylococcus aureus CIP 53154; test: Percentage of bactericidal active principle, second method (5 min contact), S. aureus; type: cell-based; details: destruction of 99.99%
Text: as §1, §2, §10, §11
(§16) 1. Staphylococcus aureus
as §5, §12, §13, §14

[8] = test system: Staphylococcus aureus CIP 53154; test: Minimum bactericidal concentration, first method (30 min contact), S. aureus; type: cell-based; details: CIP53154, 0.5 h, contact time 30 minutes
Text: as §1, §2, §3, §4, §16, §5, §6, §7, §8, §9

[9] = test system: S. aureus, E. faecium, E. coli, P. aeruginosa, C. albicans, M. smegmatis; test: Second method, bactericidal and fungicidal activity over all strains (Table III); type: cell-based; details: contact time 5 minutes
Text: as §1, §2
The second method makes it possible to define a percentage of bactericidal or fungicidal active principle by means of a simplified and automated adaptation of Afnor standards NF T 72-150 and NF T 72-170. In this method, the bactericidal activity of the product is determined with and without interfering substances. It is based on assessing the destruction of 99.99% of the initial bacteria by the product in 5 minutes. The interfering substances are of the protein type and are chosen for the actual conditions of application of this type of product. […]
The antifungal activity of the products according to the invention was also determined with and without interfering substances using the method described above. […]

[10] = test system: Pseudomonas aeruginosa CIP A22; test: Percentage of bactericidal active principle, second method (5 min contact), P. aeruginosa; type: cell-based; details: destruction of 99.99%
Text: as §1, §2, §10, §11
4. Pseudomonas aeruginosa
as §5, §12, §13, §14

Product solubility = details: for solubility: water
[11] = test system: Mycobacterium smegmatis CIP 7326; test: Percentage of bactericidal active principle, second method (5 min contact), M. smegmatis; type: cell-based; details: destruction of 99.99%
Text: as §1, §2, §10, §11
5. Mycobacterium smegmatis
as §5, §12, §13, §14

[12] = test system: Escherichia coli CIP 54127; test: Minimum bactericidal concentration, first method (30 min contact), E. coli; type: cell-based; details: CIP54127, 0.5 h, contact time 30 minutes
Text: as §1, §2, §3, §4, §15, §5, §6, §7, §8, §9

[13] = test system: S. aureus, E. faecium, E. coli, P. aeruginosa, C. albicans; test: First method, bactericidal and fungicidal activity over all strains (Table II); type: cell-based; details: contact time 30 minutes
Text: as §1, §2, §3
Plates containing cupules receive different dilutions of the test product. These dilutions of the test product are brought into contact with the different bacterial suspensions using a multiple site inoculator. […] The results are read off after 48 hours of incubation at 37° C.
The antifungal activity of the products according to the invention was also determined using the method described above. […]

[14] = Simple: without interfering substances
[15] = with proteins as interfering substances
[16] = Simple: without interfering substances, * activity limited to the zone indicated

Structure (SMILES) | MBC [1] [µg/mL] | Bactericidal activity, results in percentage of active principle, E. faecium [2, 14] | Bactericidal activity, results in percentage of active principle, E. faecium [2, 15] | Fungicidal activity, results in percentage of active principle, C. albicans [3, 14] | Fungicidal activity, results in percentage of active principle, C. albicans [3, 15] | MBC [4] [µg/mL] | Bactericidal activity, results in percentage of active principle, E. coli [5, 14] | Bactericidal activity, results in percentage of active principle, E. coli [5, 15] | MFC [6] [µg/mL] | Bactericidal activity, results in percentage of active principle, S. aureus [7, 15] | MBC [8] [µg/mL] | Bactericidal activity, results in percentage of active principle, P. aeruginosa [10, 14] | Bactericidal activity, results in percentage of active principle, P. aeruginosa [10, 15] | solubility (Product solubility) [mg/mL] | Bactericidal activity, results in percentage of active principle, M. smegmatis [11, 15] | MBC [12] [µg/mL] | Bactericidal activity, results in percentage of active principle, S. aureus [7, 16] | also measured
CCCCCCCCCCCC(=O)NCCN(C)C [D1, reference compound] | 50 (≈ 185 µM) | 0.01 percentage of active principle | 0.1 percentage of active principle | 0.1 percentage of active principle | 0.5 percentage of active principle | 50 (≈ 185 µM) | 0.05 percentage of active principle | 0.1 percentage of active principle | 200 (≈ 739 µM) | 0.5 percentage of active principle | 50 (≈ 185 µM) | 0.05 percentage of active principle | 0.5 percentage of active principle | 18 (≈ 66600 µM) | > 0.5 percentage of active principle | 50 (≈ 185 µM) | – | Ranking of activities among the products [9]: the activities are the lowest
CCCCCCCCCCCC(=O)NCCCN1CCC(Cc2ccccc2)CC1 [SR 45320 A] | 10 (≈ 24.1 µM) | < 0.001 percentage of active principle | 0.1 percentage of active principle | 0.005 percentage of active principle | 0.05 percentage of active principle | 10 (≈ 24.1 µM) | 0.01 percentage of active principle | 0.05 percentage of active principle | 10 (≈ 24.1 µM) | 0.05 percentage of active principle | 10 (≈ 24.1 µM) | 0.005 percentage of active principle | > 0.5 percentage of active principle | – | 0.05 percentage of active principle | 10 (≈ 24.1 µM) | 0.005 percentage of active principle | Ranking of MBC and MFC among the products [13]: lowest MBC and MFC; Product solubility (Product solubility; in TEG (tetraethylene glycol)): 1%
CCCCCCCCCCCC(=O)NCCCN(C)Cc1ccccc1 [SR 45583 A, N-(3-Benzylmethylaminopropyl)lauramide hydrochloride] | 50 | 0.01 percentage of active principle | 0.05 percentage of active principle | 0.05 percentage of active principle | 0.1 percentage of active principle | 10 | 0.05 percentage of active principle | 0.1 percentage of active principle | 50 | 0.5 percentage of active principle | 50 | 0.01 percentage of active principle | 0.5 percentage of active principle | > 50 | 0.05 percentage of active principle | 10 | 0.05 percentage of active principle | Bactericidal activity, results in percentage of active principle, M. smegmatis [11, 16]: 0.01 percentage of active principle
